Structures can show the parent of a compound that is named as a salt. Where two headings read alike, the source gives them in different places.
Assays:
C6 rat glioma cells [1] = test: DNA fragmentation in C6 rat glioma cells (propidium iodide flow cytometry); type: cell-based; details: Cisplatin 30 μM; perphenazine 25 and 50 μM; AN 168 25, 50 μM (FIG. 18)
Experimental: Apoptosis and DNA fragmentation: Fragmentation of cell nuclei was studied by flow cytometric analysis of propidium iodide-stained cells. This analysis was performed using a FACScan (Becton Dickinson, Mountain View, Calif.) equipped with an argon ion laser adjusted to an excitation wavelength of 480 nm and with a Doublet Discrimination Module (DDM). Lysis II (Becton Dickinson) software was used for data acquisition. Apoptotic nuclear changes were evaluated according to the criteria of Nicolletti et al..
The DNA fragmentation was determined by the propidium iodide flow cytometric method described hereinabove.

rats [2] = test: D-Amphetamine-induced hyperactivity in rats; type: in vivo, rat; details: i.p., amphetamine 2.5 mg/kg i.p.
Experimental: D-Amphetamine-induced hyperactivity in rats: The efficacy of the chemical conjugates of the present invention was studied using the D-amphetamine-induced hyperactivity and motility model, which is known as one of the most established animal models for schizophrenia.
Naïve Wistar male rats were placed in individual boxes. In each experiment 4 rats were studied. Perphenazine or equimolar doses of its chemical conjugate AN-168 were administered intraperitoneally (ip) to the rats 30 minutes prior to intraperitoneal administration of amphetamine (2.5 mg/kg), or 90 minutes prior to oral administration of amphetamine (2.5 mg/kg). The animals locomotor activity was assessed using two parameters: climbing attempts of the animal on the barrel walls (as big movements) and head movement of the animal (as small movements). Assessment was recorded every 15 minutes for two hours. Each animal was tested at each time point for 120 seconds.
The climbing behavior of the rats in each group was measured as described hereinabove.

rats [3] = test: Catalepsy in rats, “piano” test, oral administration; type: in vivo, rat
Experimental: To this end, the induced catalepsy, the prolactin blood levels and the animal behavior were measured as described hereinabove, following oral administration of either AN 168 or perphenazine alone to rats. Animals, divided 5 per cage, were treated by oral administration of perphenazine or AN-168 dissolved in 1% lactic acid. Control animals received vehicle (lactic acid) only.
The catalepsy induced by oral administration of various concentrations of AN 168 and perphenazine was measured by the “wall” test and the “piano” test described hereinabove. The time course of catalepsy was measured 4-24 hours following oral administration of 2.5, 5, 10 and 20 mg/kg perphenazine and respective equimolar doses of 3.5, 7, 14 and 28 mg/kg AN-168. The total catalepsy represents the sum of average catalepsy per treated group during the 4-24 hours of follow-up.

rats [4] = details: rat, in vivo
Experimental: Animals: Young adult male rats (150-230 grams) were purchased from Harlan (Israel). Animals were divided 2-5/cage and housed in controlled conditions in the animal room for a week prior to the experiments. The experiments were conducted with naive animals, in a double blind procedure. In each experiment various treatment groups (about 5-10 animals each) were tested.
Catalepsy in rats: The manifestation of the extrapyramidal adverse effects induced by typical neuroleptics was evaluated by the appearance of stereotypic cataleptic behavior in rats following the neuroleptic treatment. Catalepsy was determined by two methods: (i) by measuring the time it took an animal hanging on a cage wall to move its hind legs and reach a flat surface (the “wall” test); and (ii) rats were placed on a flat surface with their anterior limbs leaning on a flat bar (5.5 cm height) resembling a piano playing position. Catalepsy was determined by the time it took an animal to descend and reach the flat surface (the “piano” test). The maximum time of follow up was 2 minutes and these measurements were performed hourly and individually for each animal. These tests provide an assessment of central dopamine (DA) blocking activity and are acceptable criteria for extrapyramidal symptoms induced by anti-psychotic drugs [10].
A control animals group was treated with the vehicle (lactic acid) only.

U-937 = test: Proliferation test, U-937 cells; type: cell-based; details: Homo sapiens, linear regression of survival percentage
Experimental: Cell lines: Human prostate carcinoma (PC-3), human colon carcinoma (HT-29), murine melanoma (B-16) and its drug resistant subclone (B-16 MDR), mouse fibroblasts (3T3), myeloid leukemia (HL 60) and its drug resistant subclone (HL 60 MX2), endometrium cell line (MES SA) and its drug resistant subclone (MES DX5), jurkat T lymphoma and monocyte leukemia (U-937), were used in this study.
(§1) Proliferation of cancer and normal cells: Proliferation was measured by neutral red assay or by a fluorometric assay quantitating DNA content. In the neutral red assay, the neutral red is absorbed by lysosomes, thus causing coloring of living cells. Quantitative analysis is performed by colorimetric assay (ELISA reader at 550 nm). In the fluorometric assay, alamar blue is used as a redox indicator. Alamar blue fluorescence was measured at an excitation wavelength of 544 nm and an emission wavelength of […] (FLUOstar BMG Lab Technologies, Offenburg, Germany).
(§2) The cells were sub-cultured and the tested compounds were added thereto in increasing concentrations. The IC50 values were determined by linear regression of the survival percentage of the cells.

Normal rat fibroblasts = test: Proliferation test, normal rat fibroblasts; type: cell-based; details: Fibroblast, linear regression of survival percentage
Experimental: The primary cultures of rat fibroblasts were obtained from neonatal rats using known procedures.
as §1, §2

C6 rat glioma cells [5] = test: Viability of C6 rat glioma cells (neutral red); type: cell-based
Experimental: as §1
The cells were sub-cultured and the tested compounds were added thereto in increasing concentrations, up to 100 μM.

[6] = C6 glioma (MDR) cells, 24 hours (FIG. 14)

## NCCCC(=O)OCCN1CCN(CCCN2c3ccccc3Sc3ccc(Cl)cc32)CC1 [AN-168, Perphenazine 4-aminobutyrate Trihydrochloride]
C6 rat glioma cells [1]
  DNA fragmentation: induced a dramatically increase in DNA fragmentation
Rats [2]; AN-168 0.5 or 1.5 mg/kg, two hours (FIGS. 22, 23)
  D-amphetamine-induced climbing behavior: completely antagonized the climbing behavior induced by amphetamine even at low doses
Rats [2]; two hours (FIGS. 24, 25)
  D-amphetamine-induced head movements and other small body movement: inferior to that of perphenazine
Rats [3]; oral, 3.5-28 mg/kg AN 168 vs equimolar perphenazine, 4-6 hours (FIG. 8a)
  time course of catalepsy: consistent reduction in the cataleptic behavior at all concentrations
Rats [3]; oral, 5, 10, 20 mg/kg perphenazine, 7, 14, 28 mg/kg AN-168, 4-6 hours (FIGS. 9a, 9b)
  total catalepsy: consistently lower than that induced by perphenazine
Rats [3]; oral, 14 and 28 mg/kg AN 168, 4-6 hours (FIG. 8b)
  time course of catalepsy, experiments conducted 3 months later: higher catalepsy was induces as compared with the proceeding experiments
Rats [4]; male, ip
  time course of catalepsy: no catalepsy through the entire 7 hours period
Rats [4]; male, ip, 120 min
  time course of catalepsy, conjugate versus mixture: abolished after 120 minutes
Rats [4]
  average of total catalepsy as percentage of the perphenazine-induced catalepsy: reduced the induced catalepsy to almost a zero value
Rats [4]; ip
  total catalepsy, conjugate versus mixture: very low catalepsy
Rats [4]; ip, 5 mg/kg
  induced catalepsy, SAR studies: almost maximal reduction of induced catalepsy
  total catalepsy: did not induce catalepsy at all
Rats [4]; po
  total catalepsy: cataleptic symptoms were almost abolished
U-937
  IC50: 14.2 µM
Normal rat fibroblasts
  IC50: 45.8 µM
C6 rat glioma cells [5]; [6]
  anti-proliferative activity in C6 glioma cells: high anti-proliferative activity
  concentration causing substantial cell death: about 20 μM
C6 rat glioma cells [5]; Rattus norvegicus, Glioma cell, 24 hours treatment, neutral red, up to 100 μM (FIG. 14)
  IC50: 24.2 µM
